From the supplement of paper PMC11962398

Experiments:
BI-2493 [1] = compound: T1, C[C@H]1CNCCN1c1nccc(-c2noc3c2CCC[C@@]32CCCc3sc(N)c(C#N)c32)n1 [BI-2493]; settings: 5 days
Description: (§1)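 PRISM pooled barcoded cancer cell line viability screen (Broad Institute) with BI-2493 at 8 doses in threefold dilutions from 0.00457 to 10 µmol/L, 5-day treatment; curves fitted per cell line. IC50 is undefined (placeholder) for resistant lines. AUC is capped at 1, and sensitivity is reported as 1 − AUC.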

BI-2493 [2] = compound: T1, BI-2493; test: 1 - AUC of viability dose-response curve (sensitivity) (fraction); higher = more sensitive; settings: 5 days
Description: as §1

| Test System | IC50 of cell viability (BI-2493 [1]) | 1 - AUC of viability dose-response curve (BI-2493 [2]) |
| --- | --- | --- |
| OCILY3_HAEMATOPOIETIC_AND_LYMPHOID_TISSUE | 7.48 µM | 0.0575 |
| OCILY19_HAEMATOPOIETIC_AND_LYMPHOID_TISSUE | 3.56 µM | 0.19 |
| OCILY132_HAEMATOPOIETIC_AND_LYMPHOID_TISSUE | 7.21 µM | 0.0816 |
| OCIM1_HAEMATOPOIETIC_AND_LYMPHOID_TISSUE | 6.84 µM | 0.0683 |
| OCIP5X_OVARY | 9.58 µM | 0.00791 |
| OCUG1_BILIARY_TRACT | 4.77 µM | 0.132 |
| OE19_OESOPHAGUS | 4.24 µM | 0.168 |
| OE21_OESOPHAGUS | 3.82 µM | 0.112 |
| OE33_OESOPHAGUS | 8.75 µM | 0.041 |
| ONCODG1_OVARY | 8.36 µM | 0.0507 |
| ONDA9_CENTRAL_NERVOUS_SYSTEM | 5.1 µM | 0.0973 |
| ONS76_CENTRAL_NERVOUS_SYSTEM | 5.21 µM | 0.133 |
| OSC20_UPPER_AERODIGESTIVE_TRACT | 9.09 µM | 0.165 |
| OSRC2_KIDNEY | 4.48 µM | 0.0909 |
| OUMS23_LARGE_INTESTINE | 8.65 µM | 0.165 |
| OV17R_OVARY | 9.34 µM | 0.044 |
| OV56_OVARY | > 10 µM | 0.0641 |
| OVCAR8_OVARY | 9.61 µM | 0.00937 |
| OVISE_OVARY | 4.17 µM | 0.105 |
| OVK18_OVARY | 1.81 µM | 0.228 |
| OVKATE_OVARY | 4.22 µM | 0.086 |
| OVTOKO_OVARY | 4.32 µM | 0.123 |
| OZ_BILIARY_TRACT | 6.81 µM | 0.0583 |
| P12ICHIKAWA_HAEMATOPOIETIC_AND_LYMPHOID_TISSUE | 3.63 µM | 0.121 |
| PA1_OVARY | 1.45 µM | 0.176 |

| Test System | IC50 of cell viability (BI-2493 [1]) | 1 - AUC of viability dose-response curve (BI-2493 [2]) |
| --- | --- | --- |
| PACADD119_PANCREAS | 4.59 µM | 0.169 |
| PACADD137_PANCREAS | 8.11 µM | 0.104 |
| PACADD161_PANCREAS | 5.87 µM | 0.185 |
| PANC1_PANCREAS | 4.69 µM | 0.128 |
| PANC0203_PANCREAS | 1.16 µM | 0.327 |
| PANC0327_PANCREAS | 7.84 µM | 0.138 |
| PANC0403_PANCREAS | 0.501 µM | 0.379 |
| PANC0504_PANCREAS | 1.18 µM | 0.286 |
| PANC0813_PANCREAS | 7.44 µM | 0.27 |
| PANC1005_PANCREAS | 3.98 µM | 0.121 |
| PATU8902_PANCREAS | 6.58 µM | 0.0766 |
| PATU8988S_PANCREAS | 1.14 µM | 0.197 |
| PATU8988T_PANCREAS | 4.5 µM | 0.0812 |
| PC3_PROSTATE | > 10 µM | 0.0397 |
| PC14_LUNG | 3.98 µM | 0.181 |
| PEA1_OVARY | 5.96 µM | 0.0757 |
| PECAPJ15_UPPER_AERODIGESTIVE_TRACT | 5.35 µM | 0.125 |
| PECAPJ41CLONED2_UPPER_AERODIGESTIVE_TRACT | 8.74 µM | 0.0352 |
| PECAPJ49_UPPER_AERODIGESTIVE_TRACT | 5.93 µM | 0.0961 |
| PEDS005TPFAD_KIDNEY | 4.24 µM | 0.199 |
| PEDS005TSUSP_KIDNEY | 7.58 µM | 0.0633 |
| PEDS015T_SOFT_TISSUE | > 10 µM | 0.0985 |
| PF382_HAEMATOPOIETIC_AND_LYMPHOID_TISSUE | 5.53 µM | 0.102 |
| PFSK1_CENTRAL_NERVOUS_SYSTEM | > 10 µM | 0.063 |
| PK1_PANCREAS | 6.81 µM | 0.131 |

| Test System | IC50 of cell viability (BI-2493 [1]) | 1 - AUC of viability dose-response curve (BI-2493 [2]) |
| --- | --- | --- |
| PK8_PANCREAS | 2.17 µM | 0.161 |
| PK45H_PANCREAS | 4.3 µM | 0.168 |
| PK59_PANCREAS | 1.05 µM | 0.336 |
| PL21_HAEMATOPOIETIC_AND_LYMPHOID_TISSUE | 0.451 µM | 0.358 |
| PLCPRF5_LIVER | 5.13 µM | 0.132 |
| PMFKO14_LARGE_INTESTINE | 7.87 µM | 0.106 |
| PSN1_PANCREAS | 9.23 µM | 0.137 |
| QGP1_PANCREAS | 1.55 µM | 0.253 |
| RBE_BILIARY_TRACT | 2.47 µM | 0.243 |
| RCC10RGB_KIDNEY | 6.59 µM | 0.0818 |
| RCHACV_HAEMATOPOIETIC_AND_LYMPHOID_TISSUE | 4.98 µM | 0.198 |
| RCK8_HAEMATOPOIETIC_AND_LYMPHOID_TISSUE | 4.38 µM | 0.0825 |
| RCM1_LARGE_INTESTINE | 1.73 µM | 0.271 |
| RDES_BONE | 9.6 µM | 0.0344 |
| RD_SOFT_TISSUE | 9.09 µM | 0.0771 |
| RERFGC1B_STOMACH | 3.33 µM | 0.262 |
| RERFLCAD1_LUNG | 4.27 µM | 0.18 |
| RERFLCAD2_LUNG | 4.39 µM | 0.12 |
| RERFLCKJ_LUNG | 8.19 µM | 0.0525 |
| RERFLCMS_LUNG | 8.02 µM | 0.037 |
| RH4_SOFT_TISSUE | 6.58 µM | 0.0866 |
| RH28_SOFT_TISSUE | 5.97 µM | 0.0907 |
| RH30_SOFT_TISSUE | 9.22 µM | 0.0138 |
| RH36_SOFT_TISSUE | 6.76 µM | 0.119 |
